Target: protein disulfide isomerase (PDI) (Homo sapiens, UniProt P07237)
Assay: turbidimetric insulin disulfide reduction assay with recombinant human PDI
Type: biochemical

Sequence of protein disulfide isomerase (PDI) (P07237 18-508): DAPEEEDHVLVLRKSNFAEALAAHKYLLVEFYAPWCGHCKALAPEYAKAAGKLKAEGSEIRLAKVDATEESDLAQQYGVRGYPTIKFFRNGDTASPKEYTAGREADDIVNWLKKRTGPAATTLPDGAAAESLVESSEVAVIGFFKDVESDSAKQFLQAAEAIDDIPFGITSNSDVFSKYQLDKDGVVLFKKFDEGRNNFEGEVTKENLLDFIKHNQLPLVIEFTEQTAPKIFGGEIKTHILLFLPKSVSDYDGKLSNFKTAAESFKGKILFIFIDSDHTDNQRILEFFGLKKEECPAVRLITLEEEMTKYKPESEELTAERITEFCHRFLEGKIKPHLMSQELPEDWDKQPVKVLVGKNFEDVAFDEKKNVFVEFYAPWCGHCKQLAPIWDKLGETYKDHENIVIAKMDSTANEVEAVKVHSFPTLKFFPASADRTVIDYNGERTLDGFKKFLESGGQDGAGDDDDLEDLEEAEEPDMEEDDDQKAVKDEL

Substance: SK053
- IC50: 9.98 µM
